From paper PMC6926618, “Modification of Polyacrylonitrile Fibers by Coupling to Thiosemicarbazones” (Materials, 2019) come the findings set out here.

A word on the inhibition: it is how much of the control response was suppressed.

Series [1] concerns S. aureus. The series can be described thus: Antibacterial test on plates (zones of inhibition). Format: cell-based. The settings on record: for antibacterial activity on S. aureus (zones of inhibition): 20 g/L and 10 g/L on plates, Figure 11; for Concentration (bacteriostatic effect), S. aureus: Table 7, Figure 12.
Series [2] addresses tyrosinase. Briefly: Tyrosinase activity analysis (L-DOPA oxidation, spectrophotometry at 475 nm). Format: biochemical. Here is the method: Tyrosinase activity was determined by spectrophotometry, as 3,4-dihydroxyphenylalanine (L-DOPA, Sigma) oxidation activity, with a modification of a reported method. In brief, the tyrosinase solution (50 µL) was gently added to 450 µL of phosphate buffer at a concentration of 0.05 M containing 50 µM samples. The pH of the solution was maintained at 6.8. Then, the mixture was incubated at 30 °C for 10 min and 500 µL of 5 mM L-DOPA solution was added. […] This intensity of the peaks was recorded based on time. The tyrosinase activity was analyzed from the initial rate. The buffer containing 1% DMSO was used as a control sample. The inhibition rate of the test solution against tyrosinase was calculated using the corresponding negative control as a reference, and an approximation of the half-inhibitory concentration (IC50) was estimated based on the concentration-enzyme inhibition rate curve.

Series [3] is described as follows: Potentiometric titration, stability constant of complex with Mn^2+. Type of series: physicochemical. Conditions: 25 °C, water with 20% DMSO, KNO3. Here is the method: (§1) The stability constant of the complex was tested using a Metrohm 877 Titrino plus automatic potentiometric titrator (Metrohm, Herisau, Switzerland). The titration temperature was maintained at 25 ± 0.5 °C with pH range of 2–11. The titration solution was water solution with 20% DMSO, and the ionic strength I = […] KNO3 (aq). The initial concentration was [L] = 0.005–0.0001 mol·L^−1, [HNO3] = 0.002 mol·L^−1, [KNO3] = 0.10 mol·L^−1, and [M] = 0.0001 mol·L^−1. The total volume was 25 mL, the titration volume was 0.004 mL·D^−1, and the response time was at least 1 min. The titration was triplicate and the titration data were fitted using Hyperquad 2013 software, where the ion product of H2O was pKw = 13.85 [18]. The distribution curve of species with pH was plotted using HySS 2009 software (Version 2009, Hyperquad Co. Ltd., London, UK). Three metal ions, Cu^2+, Zn^2+, and Mn^2+, were chosen as model ions in this work. The stability constants of the thiosemicarbazone compounds forming complexes with the above three metal ions and the species distribution under different pH conditions were investigated in detail.

The nature of series [4]: Potentiometric titration, stability constant of complex with Zn^2+. Type of series: physicochemical. The settings on record: 25 °C, water with 20% DMSO, KNO3. Here is the method:
as §1

A short description of series [5]: Potentiometric titration, stability constant of complex with Cu^2+. Type of series: physicochemical. Conditions: 25 °C, water with 20% DMSO, KNO3. Here is the method: as §1
In series [6] the test system is A549 cells. The series can be described thus: MTT cytotoxicity assay. Type of series: cell-based. The settings on record: for Concentration of Compounds When 80% of Cells Survive: 48 h co-culture. Here is the method: The cytotoxic effect of compounds was determined by using in vitro colorimetric MTT assay. The A549 cells were seeded into 96-well microtiter tissue culture plates with a final volume of 100 μL. After attachment for 24 h, the cells were treated with different concentrations (0.1, 1, 10, 50, and 100 μM) of thiosemicarbazone compounds in the culture medium. Eight replicate wells per concentration were used and all experiments were repeated in triplicate. The solvent control (DMSO) was also assayed in parallel. The cells were incubated for 24 h and 48 h with compounds. Then, MTT dye was added 4 h before the completion of the incubation periods. The resulting formazan crystals were separated from the medium and then dissolved in 100 μL DMSO. The absorbance at 490 nm was used to quantify the plates using ELx808 Absorbance Microplate Reader (Bio-Tek, Winooski, USA).
On the technique in general: Tetrazolium assays rely on reduction of a dye to a coloured formazan, in cell work by metabolically active cells.

The test system of series [7] is B. subtilis. Briefly: Antibacterial test on plates (zones of inhibition). Format: cell-based. The settings on record: 20 g/L and 10 g/L on plates, Figure 11.
Series [8] concerns E. coli. Briefly: Antibacterial test on plates (zones of inhibition). Format: cell-based. Conditions: 20 g/L and 10 g/L on plates, Figure 11a.
The subject of series [9] is S. aureus. The series can be described thus: Antibacterial test GB/T20944.3-2008, colony count, inhibition rate. Format: cell-based. Conditions: Staphylococcus aureus, DY6 at 1.0 µM vs control sample, read-out: inhibition effect (colony-forming bacterial units). Here is the method: Antibacterial performance against bacteria (E. coli, S. aureus, and B. subtilis) was determined according to GB/T20944.3-2008. The inoculation suspension of bacteria was prepared and the inoculation loop was used to conduct the bacterial inoculation on the agar board for 18–24 h at 37 ± 1 °C. The sample was dipped into the conical flask filled with experimental bacteria solution with a certain concentration. After that, the oscillation culture is conducted to the samples for specified time, and 1 mL of solution was taken, diluted and distributed onto an agar plate. All plates were incubated at 37 °C for 24 h and the colonies formed were counted. […] Qt is the bacteria-colony number of viable bacteria in the plate after antibacterial treatment or grafted PAN fibers.
Figure 13 Antibacterial effect against S. aureus: (a) control sample; (b) after treatment with DY6 ay the concentration of 1.0 µM; (c) original PAN fibers; and (d) grafted DY6–PAN fibers.

Where [10] appears, read: L-DOPA substrate, pH 6.8, 30 °C, approximation from concentration-inhibition curve, read-out: IC50 (semi-inhibitory concentration of tyrosinase).

Each structure is given as a SMILES string. “And” between values parts separate entries of the source, which are not always exact repeats. Identical values can stand only once. Like-named read-outs stand apart in the source and are kept apart here.

`COc1ccc(/C=N/NC(N)=S)c(O)c1` [DY4]: the “antibacterial activity on S. aureus (zones of inhibition)” value in series [1] is “good antibacterial activities”. In addition, the IC50 in [2] (setting [10]) is 1.12 µM. The “logKMn^2+, n = 1” value in [3] is recorded as 14.01 ± 0.08 M^−1. Also, in series [4], the “logKZn^2+, n = 1” value was 13.56 ± 0.17 M^−1. Also, in series [5], the “logKCu^2+, n = 1” value was found to be 18.95 ± 0.10 M^−1. In series [6], the “effective concentration (A549 cell survival rate maintained above 80%)” value is on record as “up to 100 μM” and the “Concentration of Compounds When 80% of Cells Survive” value is less than 100 µM. The “antibacterial activity on B. subtilis (zones of inhibition)” value in series [7] is “good antibacterial activities”. In addition, in [8], the “antibacterial effect on E. coli” value is listed as “do not have an antibacterial effect”.
`NC(=S)N/N=C/c1cc(Cl)ccc1O` [DY5]: in [1], the “antibacterial activity on S. aureus (zones of inhibition)” value is given as “good antibacterial activities”. Also, the IC50 in series [2] (setting [10]) came out at 1.68 µM. The “logKMn^2+, n = 1” value in series [3] was found to be 13.65 ± 0.16 M^−1. Also, the “logKZn^2+, n = 1” value in series [4] was found to be 12.51 ± 0.20 M^−1. Moreover, in [5], the “logKCu^2+, n = 1” value is 19.43 ± 0.22 M^−1. Further, in series [6], the “effective concentration (A549 cell survival rate maintained above 80%)” value is 50 µM and the “Concentration of Compounds When 80% of Cells Survive” value is less than 50 µM. Besides, the “antibacterial activity on B. subtilis (zones of inhibition)” value in series [7] was “good antibacterial activities”. Besides, in [8], the “antibacterial effect on E. coli” value is on record as “do not have an antibacterial effect”.
As to `NC(=S)N/N=C/c1cc(O)ccc1O` [DY2], the “logKMn^2+, n = 1” value in series [3] was found to be 14.27 ± 0.17 M^−1. Also, the “logKZn^2+, n = 1” value in series [4] is 13.53 ± 0.11 M^−1. Further, the “logKCu^2+, n = 1” value in [5] turned out to be 18.83 ± 0.14 M^−1.
Consider `CCN(CC)c1ccc(/C=N/NC(N)=S)c(O)c1` [DY6], for which, in series [1], the “antibacterial activity on S. aureus (zones of inhibition)” value is recorded as “good antibacterial activities” and the “Concentration (bacteriostatic effect), S. aureus” value was 0.02 µM. Also, in series [2] (L-DOPA method, blank control 1% DMSO, read-out: IC50 (semi-inhibitory curve, Figure 3)), the IC50 turned out to be 0.6 µM. The IC50 in [2] (setting [10]) turned out to be 0.6 µM. Besides, in [9], the inhibition at 1 µM came out at 88.6%. The “logKMn^2+, n = 1” value in series [3] is 14.37 M^−1 and 14.37 ± 0.30 M^−1. Besides, the “logKZn^2+, n = 1” value in [4] was 14.07 M^−1 and 14.07 ± 0.37 M^−1. For the same compound, the “logKCu^2+, n = 1” value in series [5] was 20.15 M^−1 and 20.15 ± 0.14 M^−1. Besides, in [6], the “effective concentration (A549 cell survival rate maintained above 80%)” value was “up to 100 μM” and the “Concentration of Compounds When 80% of Cells Survive” value was less than 100 µM. For the same compound, in series [7], the “antibacterial activity on B. subtilis (zones of inhibition)” value is given as “good antibacterial activities”. Also, in [8], the “antibacterial effect on E. coli” value is “do not have an antibacterial effect”.
Turning to `NC(=S)N/N=C/c1ccc2c(c1)OCCO2` [DY7], the IC50 in series [2] (setting [10]) came out at 41.2 µM. In addition, in [6], the “effective concentration (A549 cell survival rate maintained above 80%)” value stood at 50 µM and the “Concentration of Compounds When 80% of Cells Survive” value was less than 50 µM.
With `NC(=S)N/N=C/c1cc([N+](=O)[O-])ccc1O` [DY3], the IC50 in series [2] (setting [10]) was found to be 9.88 µM. Further, the “logKMn^2+, n = 1” value in series [3] amounted to 14.48 ± 0.11 M^−1. The “logKZn^2+, n = 1” value in series [4] is listed as 13.69 ± 0.12 M^−1. The “logKCu^2+, n = 1” value in series [5] was 19.10 ± 0.15 M^−1. Moreover, in series [6], the “effective concentration (A549 cell survival rate maintained above 80%)” value worked out at 50 µM and the “Concentration of Compounds When 80% of Cells Survive” value is less than 50 µM.
In the case of `Cc1ccc(O)c(/C=N/NC(N)=S)c1` [DY1], in [1], the “antibacterial activity on S. aureus (zones of inhibition)” value is on record as “good antibacterial activities” and the “Concentration (bacteriostatic effect), S. aureus” value amounted to 0.02 µM. Besides, the IC50 in series [2] (setting [10]) is 1.88 µM. In series [3], the “logKMn^2+, n = 1” value was found to be 13.67 ± 0.31 M^−1. For the same compound, in series [4], the “logKZn^2+, n = 1” value was 13.13 ± 0.21 M^−1. For the same compound, the “logKCu^2+, n = 1” value in series [5] worked out at 19.15 ± 0.11 M^−1. Besides, in series [6], the “effective concentration (A549 cell survival rate maintained above 80%)” value was “up to 100 μM” and the “Concentration of Compounds When 80% of Cells Survive” value is less than 100 µM. Further, the “antibacterial activity on B. subtilis (zones of inhibition)” value in series [7] is “good antibacterial activities”. In series [8], the “antibacterial effect on E. coli” value is recorded as “do not have an antibacterial effect”.
